Measured values as given in ChEMBL document CHEMBL1201862, “PubChem BioAssay data set” (2004).
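Briefly, cells in 96-well plates were exposed to five compound concentrations for 48 h, and endpoints were estimated by linear interpolation. GI50: concentration for 50% inhibition of growth.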 The source made the active and inactive calls. Rule as the data show it: active = GI50 up to about 1.1 µM and inactive = higher.

What was measured:
Test in all cases: NCI anticancer screen, dose series, 48 h
[1] = system: 786-0
[2] = system: A498
[3] = system: A549
[4] = system: ACHN
[5] = system: BT-549
[6] = system: CAKI-1
[7] = system: COLO 205
[8] = system: DU-145
[9] = system: EKVX
[10] = system: HCT-116
[11] = system: HCT-15
[12] = system: HOP-62
[13] = system: HOP-92
[14] = system: HT-29
[15] = system: Hs-578T
[16] = system: IGROV-1
[17] = system: K562
[18] = system: KM12
[19] = system: LOX IMVI
[20] = system: M14
[21] = system: MCF7
[22] = system: MDA-MB-231
[23] = system: MDA-MB-435
[24] = system: MDA-N
[25] = system: MOLT-4
[26] = system: Malme-3M
[27] = system: NCI-H226
[28] = system: NCI-H460
[29] = system: NCI-H522
[30] = system: NCI/ADR-RES
[31] = system: OVCAR-4
[32] = system: OVCAR-5
[33] = system: OVCAR-8
[34] = system: PC-3
[35] = system: RPMI-8226
[36] = system: RXF 393
[37] = system: SF-268
[38] = system: SK-MEL-28
[39] = system: SK-MEL-2
[40] = system: SK-MEL-5
[41] = system: SN12C
[42] = system: SNB-19
[43] = system: SNB-75
[44] = system: SR
[45] = system: T47D
[46] = system: TK-10
[47] = system: U-251
[48] = system: UACC-257
[49] = system: UACC-62
[50] = system: UO-31
[51] = system: CCRF-CEM
[52] = system: HCC 2998
[53] = system: HL-60
[54] = system: NCI-H23
[55] = system: OVCAR-3
[56] = system: SF-295
[57] = system: SF-539
[58] = system: SK-OV-3
[59] = system: SW-620

Compound: ClC(Cl)(Cl)C(N1CCN(c2ccccc2)CC1)N1CCN(c2ccccc2)CC1
- GI50 [1]: > 100 µM (inactive)
- GI50 [2]: > 100 µM (inactive)
- GI50 [3]: > 100 µM (inactive)
- GI50 [4]: > 100 µM (inactive)
- GI50 [5]: > 100 µM (inactive)
- GI50 [6]: > 100 µM (inactive)
- GI50 [7]: > 100 µM (inactive)
- GI50 [8]: > 100 µM (inactive)
- GI50 [9]: > 100 µM (inactive)
- GI50 [10]: > 100 µM (inactive)
- GI50 [11]: > 100 µM
- GI50 [12]: > 100 µM (inactive)
- GI50 [13]: > 100 µM (inactive)
- GI50 [14]: > 100 µM (inactive)
- GI50 [15]: > 100 µM (inactive)
- GI50 [16]: > 100 µM (inactive)
- GI50 [17]: > 100 µM (inactive)
- GI50 [18]: > 100 µM (inactive)
- GI50 [19]: > 100 µM (inactive)
- GI50 [20]: > 100 µM (inactive)
- GI50 [21]: > 100 µM (inactive)
- GI50 [22]: > 100 µM (inactive)
- GI50 [23]: > 100 µM (inactive)
- GI50 [24]: > 100 µM (inactive)
- GI50 [25]: > 100 µM (inactive)
- GI50 [26]: > 100 µM (inactive)
- GI50 [27]: > 100 µM (inactive)
- GI50 [28]: > 100 µM (inactive)
- GI50 [29]: > 100 µM (inactive)
- GI50 [30]: > 100 µM (inactive)
- GI50 [31]: > 100 µM (inactive)
- GI50 [32]: > 100 µM (inactive)
- GI50 [33]: > 100 µM (inactive)
- GI50 [34]: > 100 µM (inactive)
- GI50 [35]: > 100 µM (inactive)
- GI50 [36]: > 100 µM (inactive)
- GI50 [37]: > 100 µM (inactive)
- GI50 [38]: > 100 µM (inactive)
- GI50 [39]: > 100 µM (inactive)
- GI50 [40]: > 100 µM (inactive)
- GI50 [41]: > 100 µM (inactive)
- GI50 [42]: > 100 µM (inactive)
- GI50 [43]: > 100 µM (inactive)
- GI50 [44]: 45 µM (inactive)
- GI50 [45]: > 100 µM (inactive)
- GI50 [46]: > 100 µM (inactive)
- GI50 [47]: > 100 µM (inactive)
- GI50 [48]: > 100 µM (inactive)
- GI50 [49]: > 100 µM (inactive)
- GI50 [50]: > 100 µM (inactive)

Compound: CCC/N=C(/NC(=O)c1ccc(Cl)cc1)SC
- GI50 [1]: > 100 µM (inactive)
- GI50 [2]: 27.4 µM (inactive)
- GI50 [3]: > 100 µM (inactive)
- GI50 [4]: 39.8 µM (inactive)
- GI50 [5]: 25.5 µM (inactive)
- GI50 [6]: > 100 µM (inactive)
- GI50 [51]: > 100 µM (inactive)
- GI50 [7]: > 100 µM (inactive)
- GI50 [8]: > 100 µM (inactive)
- GI50 [9]: > 100 µM (inactive)
- GI50 [52]: > 100 µM (inactive)
- GI50 [10]: > 100 µM (inactive)
- GI50 [11]: 47.9 µM
- GI50 [53]: 58.7 µM (inactive)
- GI50 [12]: > 100 µM (inactive)
- GI50 [14]: 97.3 µM (inactive)
- GI50 [15]: 12.1 µM (inactive)
- GI50 [16]: > 100 µM (inactive)
- GI50 [17]: 44.1 µM (inactive)
- GI50 [18]: > 100 µM (inactive)
- GI50 [19]: > 100 µM (inactive)
- GI50 [20]: > 100 µM (inactive)
- GI50 [21]: 75.9 µM (inactive)
- GI50 [22]: > 100 µM (inactive)
- GI50 [23]: > 100 µM (inactive)
- GI50 [24]: > 100 µM (inactive)
- GI50 [25]: 58.7 µM (inactive)
- GI50 [26]: > 100 µM (inactive)
- GI50 [27]: 43.1 µM (inactive)
- GI50 [54]: 46.3 µM (inactive)
- GI50 [28]: 90.6 µM (inactive)
- GI50 [29]: 52 µM (inactive)
- GI50 [30]: > 100 µM (inactive)
- GI50 [55]: 47.3 nM (active)
- GI50 [31]: 50.9 µM (inactive)
- GI50 [32]: > 100 µM (inactive)
- GI50 [33]: > 100 µM (inactive)
- GI50 [34]: 80.5 µM (inactive)
- GI50 [35]: 26.5 µM (inactive)
- GI50 [36]: > 100 µM (inactive)
- GI50 [37]: 88.9 µM (inactive)
- GI50 [56]: > 100 µM (inactive)
- GI50 [57]: > 100 µM (inactive)
- GI50 [38]: > 100 µM (inactive)
- GI50 [39]: > 100 µM (inactive)
- GI50 [40]: 48.6 µM (inactive)
- GI50 [58]: > 100 µM (inactive)
- GI50 [41]: > 100 µM (inactive)
- GI50 [42]: 17.6 µM (inactive)
- GI50 [43]: 11.4 µM (inactive)
- GI50 [44]: 36.8 µM (inactive)
- GI50 [59]: > 100 µM (inactive)
- GI50 [45]: 65.9 µM (inactive)
- GI50 [47]: > 100 µM (inactive)
- GI50 [48]: 74.5 µM (inactive)
- GI50 [49]: > 100 µM (inactive)
- GI50 [50]: 15 µM (inactive)
